Measured values from US6451814B1, “Heterocyclic β-3 adrenergic receptor agonists” (Wyeth, priority 2000, dated 2002).
Structures can show the parent of a compound that is named as a salt. Where two headings read alike, the source gives them in different places.

What was measured:
[1] = target: T1, human β3-adrenergic receptor (Homo sapiens, UniProt P13945); experiment: cAMP response (SPA kit) in CHO cells transfected with human β3 adrenergic receptor; format: cell-based; conditions: for EC50: CHO cells expressing human β3-AR, 10^-9 M to 10^-5 M, 30 min at 37° C., cAMP by SPA; for IA(β3): maximal response of compound compared to maximal response of isoproterenol at 10^-5 M, CHO cells, human β3-AR
T1 construct: Full length β3 AR clones (402 amino acids) containing the last 6 amino acids of hβ3—AR are prepared; expressed in transfected cells; host or cells: CHO cells
T1 sequence (P13945 whole entry): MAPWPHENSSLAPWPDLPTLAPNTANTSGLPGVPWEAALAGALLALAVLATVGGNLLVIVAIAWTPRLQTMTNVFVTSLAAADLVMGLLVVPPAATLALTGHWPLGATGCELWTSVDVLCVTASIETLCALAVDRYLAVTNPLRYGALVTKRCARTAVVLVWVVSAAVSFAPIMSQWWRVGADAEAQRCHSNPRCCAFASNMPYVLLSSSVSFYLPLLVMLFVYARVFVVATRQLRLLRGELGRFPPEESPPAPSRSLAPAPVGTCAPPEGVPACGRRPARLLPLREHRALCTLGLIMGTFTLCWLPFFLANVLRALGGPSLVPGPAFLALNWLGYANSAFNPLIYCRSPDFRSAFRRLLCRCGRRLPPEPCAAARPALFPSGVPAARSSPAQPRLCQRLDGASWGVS

melting point [°C] | IA(β3) [1] | Compound | other results
168 to 171 | – | CCCCCCCCNC(=O)N1CCC(Nc2ccc(CCNC[C@H](O)c3cccc(Cl)c3)cc2)CC1 (as salt: salt) [Example 36, 4-(4-{2-[(2R)-2-(3-Chloro-phenyl)-2-hydroxy-ethylamino]-ethyl}-phenylamino)-piperidine-1-carboxylic Acid Octylamide] | –
72 to 77 | – | CNC(=O)N1CCC(Nc2ccc(CCNC[C@H](O)COc3ccc(O)cc3)cc2)CC1 (as salt: salt) [Example 9, 4-(4-{2-[(2S)-2-Hydroxy-3-(4-hydroxy-phenoxy)-propylamino]-ethyl}-phenylamino)-piperidine-1-carboxylic Acid Methylamide] | –
85 to 87 | – | CCCCCCCCNC(=O)N1CCC(Nc2ccc(CCNC[C@H](O)CON=C3CCCc4c(O)cccc43)cc2)CC1 [Example 64, 4-(4-{2-[(2S)-2-Hydroxy-3-(5-hydroxy-3,4-dihydro-2H-naphthalen-1-ylideneaminooxy)-propylamino]-ethyl}-phenylamino)-piperidine-1-carboxylic Acid Octylamide] | –
73 to 74 | – | CCCCCCCCNC(=O)N1CCC(Nc2ccc(CCNC[C@H](O)COc3cccc(NC(C)=O)c3)cc2)CC1 [Example 63, 4-(4-{2-[(2S)-3-(3-Acetylamino-phenoxy)-2-hydroxy-propylamino]-ethyl}-phenylamino)-piperidine-1-carboxylic Acid Octylamide] | –
73 to 80 | – | C=CCc1ccccc1OC[C@@H](O)CNCCc1ccc(NC2CCN(C(=O)NCCCCCCCC)CC2)cc1 (as salt: salt) [Example 4, 4-(4-{2-[(2S)-3-(2-Allyl-phenoxy)-2-hydroxy-propylamino]-ethyl}-phenylamino)-piperidine-1-carboxylic Acid Octylamide] | –
71 to 74 | – | O=C(NCCCC1CCCC1)N1CCC(Nc2ccc(CCNC[C@H](O)COc3ccc(O)cc3)cc2)CC1 (as salt: salt) [Example 12, 1-4-(4-{2-[(2S)-2-Hydroxy-3-(4-hydroxy-phenoxy)-propylamino]-ethyl}-phenylamino)-piperidine-1-carboxylic Acid (3-cyclopentyl-propyl)-amide] | –
160 to 162 | – | O=C(NCc1ccc(F)cc1)N1CCC(Oc2ccc(CCNC[C@H](O)COc3ccc(O)cc3)cc2)CC1 (as salt: salt) [Example 56, 4-(4-{2-[(2S)2-Hydroxy-3-(4-hydroxy-phenoxy)-propylamino]-ethyl}-phenoxy)-piperidine-1-carboxylic Acid 4-fluoro-benzylamide] | –
153 to 155 | – | CCCCCCCCNC(=O)N1CCC(Oc2ccc(CCNC[C@H](O)COc3ccc(O)cc3)cc2)CC1 (as salt: salt) [Example 54, 4-[4-(2-{[(2S)-2-Hydroxy-3-(4-hydroxyphenoxy)propyl]amino}ethyl)phenoxy]-N-octyl-1-piperidinecarboxamide] | –
134 to 138 | – | CCCCCCCCNC(=O)N1CCC(Nc2ccc(CCNC[C@H](O)COc3ccc(N)nc3)cc2)CC1 (as salt: salt) [Example 5, 4-(4-{2-[(2S)-3-(6-Amino-pyridin-3-yloxy)-2-hydroxy-propylamino]-ethyl}-phenylamino)-piperidine-1-carboxylic Acid Octylamide] | –
– | 1.05 | CC(C)NC(=O)N1CCC(Nc2ccc(CCNC[C@H](O)COc3ccc(O)cc3)cc2)CC1 [Example 11] | EC50 ([1]; read-out: EC50(β3)): 0.09 µM

The next lines start with the compound.

Compound | melting point [°C] | IA(β3) [1] | other results
Cc1ccsc1C(=O)N1CCC(Nc2ccc(CCNC[C@H](O)COc3ccc(O)cc3)cc2)CC1 (as salt: salt) [Example 100, [4-(4-{2-[(2S)-2-Hydroxy-3-(4-hydroxy-phenoxy)-propylamino]-ethyl}-phenylamino)-piperidin-1-yl]-(3-methyl-thiophen-2-yl)-methanone] | 88 to 90 | – | –
CC(=O)Nc1ccc(S(=O)(=O)N2CCC(Nc3ccc(CCNC[C@H](O)COc4ccc(O)cc4)cc3)CC2)cc1 (as salt: salt) [Example 114, N-{4-[4-(4-{2-[(2S)-2-Hydroxy-3-(4-hydroxy-phenoxy)-propylamino]-ethyl}-phenylamino)-piperidine-1-sulfonyl]-phenyl}-acetamide] | 98 to 104 | – | –
Oc1ccc(OC[C@@H](O)CNCCc2ccc(NC3CCN(c4nc(-c5ccccc5)cs4)CC3)cc2)cc1 (as salt: hydrochloride) [Example 117, 4-[(2S)-2-Hydroxy-3-(2-{4-[1l-(4-phenyl-thiazol-2-yl)-piperidin-4-ylamino]-phenyl}-ethylamino)-propoxy]-phenol] | 80 to 82 | – | –
O=C(NCc1ccc(F)cc1)N1CCC(Nc2ccc(CCNC[C@H](O)COc3ccc(O)cc3)cc2)CC1 (as salt: salt) [Example 1, 4-(4-{2-[(2S)-2-Hydroxy-3-(4-hydroxy-phenoxy)-propylamino]-ethyl}-phenylamino)-piperidine-1-carboxylic Acid 4-fluoro-benzylamide] | 89 to 91 | – | –
O=C(NCc1ccc(Cl)cc1Cl)N1CCC(Nc2ccc(CCNC[C@H](O)COc3ccc(O)cc3)cc2)CC1 (as salt: ammonium) [Example 20, 4-(4-{2-[(2S)-2-Hydroxy-3-(4-hydroxy-phenoxy)-propylamino]-ethyl}-phenylamino)-piperidine-1-carboxylic Acid 2,4-dichloro-benzylamide] | 93 to 99 | – | –
CS(=O)(=O)Nc1cc([C@@H](O)CNCCc2ccc(NC3CCN(c4nc(-c5ccccc5)cs4)CC3)cc2)ccc1O (as salt: salt) [Example 118, (R)-N-{2-Hydroxy-5-[1-hydroxy-2-(2-{4-[1-(4-phenyl-thiazol-2-yl)-piperidin-4-ylamino]-phenyl}-ethylamino)-ethyl]-phenyl}-methanesulfonamide] | 142 to 145 | – | –
O=C(NCc1ccc(Cl)c(Cl)c1)N1CCC(Nc2ccc(CCNC[C@H](O)COc3ccc(O)cc3)cc2)CC1 (as salt: ammonium) [Example 21, 4-(4-{2-[(2S)-2-Hydroxy-3-(4-hydroxy-phenoxy)-propylamino]-ethyl}-phenylamino)-piperidine-1-carboxylic Acid 3,4-dichloro-benzylamide] | 94 to 97 | – | –
CS(=O)(=O)Nc1cc([C@@H](O)CNCCc2ccc(NC3CCN(C(=O)c4ccc(C(=O)O)cc4)CC3)cc2)ccc1O (as salt: salt) [Example 105, 4-[4-(4-{2-[(2R)-2-Hydroxy-2-(4-hydroxy-3-methanesulfonylamino-phenyl)-ethylamino]-ethyl}-phenylamino)-piperidine-1-carbonyl]-benzoic Acid] | > 200 | – | –
CN(C)C(=O)Oc1ccc(CNC(=O)N2CCC(Nc3ccc(CCNC[C@H](O)COc4ccc(O)cc4)cc3)CC2)c(F)c1 [Example 84, Dimethyl-carbamic Acid 3-fluoro-4-({[4-(4-{2-[(2S)-2-hydroxy-3-(4-hydroxy-phenoxy)-propylamino]-ethyl}-phenlamino)-piperidine-1-carbonyl]-amino}-methyl)-phenyl Ester] | – | 0.75 | EC50 ([1]; EC50(β3, μM)): 0.096 µM
O=C(O)COc1ccc(NC(=O)N2CCC(Nc3ccc(CCNC[C@H](O)COc4ccc(O)cc4)cc3)CC2)cc1 [Example 58, (4-{[4-(4-{2-[(2S)-2-Hydroxy-3-(4-hydroxy-phenoxy)-propylamino]-ethyl}-phenylamino)-piperidine-1-carbonyl]-amino}-phenoxy)-acetic Acid] | – | 1.61 | EC50 ([1]; read-out: EC50(β3)): 0.32 µM
O=C(c1cc2cc(Br)ccc2[nH]1)N1CCC(Nc2ccc(CCNC[C@H](O)COc3ccc(O)cc3)cc2)CC1 [Example 96, (5-Bromo-1H-indol-2-yl)-[4-(4-{2-[(2S)-2-hydroxy-3-(4-hydroxy-phenoxy)-propylamino]-ethyl}-phenylamino)-piperidin-1-yl]-methanone] | – | 0.83 | EC50 ([1]; read-out: EC50(β3)): 0.306 µM
O=C(NCc1ccc(Cl)c(Cl)c1)N1CCC(Nc2ccc(CCNC[C@H](O)COc3ccc(O)cc3)cc2)CC1 [Example 21, 4-(4-{2-[(2S)-2-Hydroxy-3-(4-hydroxy-phenoxy)-propylamino]-ethyl}-phenylamino)-piperidine-1-carboxylic Acid 3,4-dichloro-benzylamide] | – | 1 | EC50 ([1]; read-out: EC50(β3)): 0.03 µM
4-[(2S)-2-Hydroxy-3-(2-{4-[-(1-methyl-1H-imidazole-4-sulfonyl)-piperidin-4-ylamino]-phenyl}-ethylamino)-propoxy]-phenol [Example 113] | – | 1 | EC50 ([1]; read-out: EC50(β3)): 0.13 µM
O=C(NCc1ccc(F)cc1)N1CCC(Nc2ccc(CCNC[C@H](O)COc3cccc(O)c3)cc2)CC1 [Example 85, 4-(4-{2-[(2S)-2-Hydroxy-3-(3-hydroxy-phenoxy)-propylamino]-ethyl}-phenylamino)-piperidine-1-carboxylic Acid 4-fluoro-benzylamide] | – | 0.82 | EC50 ([1]; read-out: EC50(β3)): 0.003 µM
O=C(NCc1ccc(Cl)cc1Cl)N1CCC(Nc2ccc(CCNC[C@H](O)COc3ccc(O)cc3)cc2)CC1 [Example 20, 4-(4-{2-[(2S)-2-Hydroxy-3-(4-hydroxy-phenoxy)-propylamino]-ethyl}-phenylamino)-piperidine-1-carboxylic Acid 2,4-dichloro-benzylamide] | – | 0.91 | –
Cc1ccsc1C(=O)N1CCC(Nc2ccc(CCNC[C@H](O)COc3cccc4[nH]c(=O)[nH]c34)cc2)CC1 [Example 101, 4-[(2S)-2-Hydroxy-3-(2-{4-[1-(3-methyl-thiophene-2-carbonyl)-piperidin-4-ylamino]-phenyl}-ethylamino)-propoxy]-1,3-dihydro-benzoimidazol-2-one] | – | 0.63 | EC50 ([1]; read-out: EC50(β3)): 0.01 µM
O=C(c1n[nH]c2ccccc12)N1CCC(Nc2ccc(CCNC[C@H](O)COc3ccc(O)cc3)cc2)CC1 [Example 102, [4-(4-{2-[(2S)-2-Hydroxy-3-(4-hydroxy-phenoxy)-propylamino]-ethyl}-phenylamino)-piperidin-1-yl]-(1H-indazol-3-yl)-methanone] | – | 0.95 | EC50 ([1]; read-out: EC50(β3)): 0.009 µM
